Assay results published in patent US20080279961A1, “TELOMERE TARGETING AGENTS AS STEM CELLS DIRECTED TREATMENTS” (priority 2007, published 2008).
Values joined by “and” are separate entries in the source; they are usually repeats but may differ in a detail not shown here. Equal entries are not always repeated. “Also recorded” adds a separate entry of the source.

Assays:
MCF-7 cells = experiment: MTT proliferation assay (bulk cells); format: cell-based, human; settings: MCF-7, 5 day; read-out: IC50 bulk cell / whole cell population by MTT assay
Experimental: (§1) The growth inhibitory activity of RHPS4 in human bulk tumor cells have been compared, by MTT assay, against RHPS4 activity in tumor cells grown as colonies in the clonogenic assay, also termed the human tumor stem cell assay (HTCA) (FIG. 2A-B). HEK293T human embryonic kidney cells grown in the HTCA, and cord blood cells cultured in methylcellulose were also treated with RHPS4 (FIG. 2C). The MTT assay is a 5 day proliferation test measuring effects on a morphologically heterogeneous, differentiated cell population (bulk cells), whereas the HTCA and methylcellulose assays are longer term (10-15 day) tests in which only a very small fraction of a bulk culture (˜0.1-1%) will grow as colonies. Cells growing anchorage-independently as colonies in a semi-solid matrix are considered to be pluripotent stem cells (Hamburger & Salmon, 1977; Locke et al., 2005; Fiebig et al. 2004). […] Similar observations were made with the breast cancer cell line MCF-7 (shown in FIG. 2B, HTCA IC50=0.04 microM; bulk cell IC50=2 microM).

PC3 cells = experiment: MTT proliferation assay (bulk cells); format: cell-based, human; settings: PC3, 5 day; read-out: IC50 growth inhibition of the bulk population by MTT assay
Experimental: as §1

UXF1138L cells = experiment: MTT proliferation assay (bulk cells); format: cell-based, human; settings: 5 day, read-out: IC50 growth inhibition of the bulk population by MTT assay
Experimental: as §1

HEK293T cells = experiment: MTT proliferation assay (monolayer); format: cell-based, human
Experimental: To assess RHPS4 effects on normal stem cells, the human embryonic kidney cell line HEK293T was exposed to drug in the MTT and HTCA assays, and tested RHPS4 effects on colony forming units of the mononuclear cell fraction of human cord blood in methyl cellulose (FIG. 2C). The cord blood colony assay was performed with and without colony stimulating growth factors, only methylcellulose containing growth factors grew colonies. […] Additionally, in normal cell types as compared to tumor cells, low and pharmacodynamically relevant concentrations of RHPS4 (0.01 to 1 microM) did induce colony formation (FIG. 2C). To assure that the induction of colony growth by RHPS4 in normal stem cells is reproducible, cord blood from three different individuals and HEK293T cells from different passages were used. Data shown in FIG. 2C represent the mean and standard deviation from three independent experiments. […] However, the plating efficiency (actual number of colonies growing per total number of cells seeded) varied among the experiments and therefore the results are shown as % of control growth. E.g. HEK293T control colony growth ranged from a mean number of 54 to 463 colonies per well, but the least percentage (cut-off level) of growth induction by RHPS4 observed in either, the individual HEK293T or the cord blood experiments, was 150%. […]

UXF1138L xenografts = experiment: tumor growth inhibition of subcutaneous xenografts; format: in vivo, nude mice
[1] = system: telomeres of UXF1138L xenografts; experiment: telomere restriction fragment (TRF) length by Southern blot in primary cultures from xenografts; format: in vivo, xenograft
Experimental: Upon termination of the experiment, which was when tumors reached a volume of 1.5 cm in diameter (day 28), RHPS4 treated tumor tissue and control tumors were excised, minced and digested using a mixture of collagenase (123 U/ml), DNase (375 U/ml), and hyaluronidase (290 U/ml) in RPMI 1640 medium at 37° C. for 3 hrs. All enzymes were purchased from Roche, Indianapolis Ind.). Primary cultures as well as clonogenic growth assays were prepared from the resulting single cell suspensions. Primary cultures were used for analysis of telomere length. In addition, RHPS4 treated tumors (5 mg/kg/d) and control were propagated into new animals for up to three times. The control mouse group was always derived from untreated tumor fragments, but from the same initial passage as were the RHPS4 treated tumors (FIG. 1B).
To measure TRF (Telomere Restriction Fragment)-length, genomic DNA was isolated from 3-7 day primary cultures established from single cell suspensions of control and treated UXF1138L xenograft tissues using the DNeasy Tissue Kit (Qiagen, Hilden, Germany). Southern blotting was performed with the Telo-TAGGG-telomere length kit from Roche (Penzberg, Germany) and analyzed as described before (Burger et al., 2005; Cookson et al., 2005).

hTERT = hTERT immunofluorescence staining in vitro; format: cell-based, human; settings: UXF1138L cells, 1 microM, 24 hrs
Experimental: During phosphorylated H2AX (gamma-H2AX) and hTERT immunofluorescence staining, approximately 75,000 UXF1138L cells/chamber were seeded onto 8 chamber glass slides (Costar) 24 hrs prior to RHPS4 treatment. After exposure to 1 μM RHPS4 for 1, 6, or 24 hours, cells were washed twice with PBS and air dried. Cells were fixed and permeabilized by immersion into ice-cold methanol/acetone (1:1; 3×1 min). Slides were blocked overnight at 4° C. with 5% BSA in PBS and washed with PBS (3×) before incubation (2 hrs) with anti-gamma-H2AX mouse monoclonal antibody (Upstate, Waltham, Mass.; 1:250 in PBS) or hTERT monoclonal antibody (NCL-L-hTERT Novacastra, Newcastle, UK; 1:40) respectively. Control cells were probed with mouse IgG (Santa Cruz Biotechnolog Inc., Santa Cruz, Calif.). Slides were washed 3× with PBS, before incubation with a goat anti-mouse FITC conjugated secondary antibody (Sigma; 1:100, 3 h). Following further PBS washes (3×), slides were incubated with 1:5000 DAPI (2 mg/ml; Sigma), washed 3× in PBS and mounted with Vectashield mounting media. Images were visualized as described above.

SMILES: COS(=O)(=O)[O-].Cc1cc2c3c([n+](C)c4ccc(F)cc4c3c1)-c1cc(F)ccc1N2C [RHPS4, 3,11-difluoro-6,8,13-trimethyl-8H-quino[4,3,2-kl]acridinium methosulfate]
- IC50 (MCF-7 cells): 2 µM
- IC50 (PC3 cells): 1.8 µM
- IC50 (UXF1138L cells): 0.4 µM
- bulk cell growth, % of control (HEK293T cells; 1 mircoM RHPS4, HEK293T monolayer): 60%
- induction of growth in MTT assay (HEK293T cells; eight dose levels 0.001-50 mircoM): no induction of growth
- tumor growth inhibition, maximal extent compared to control (UXF1138L xenografts; Passage 3, day 28): 33%
- day of optimal Test/Control (UXF1138L xenografts; Passage #1): (16) day
- opt. Test/Control [%] (UXF1138L xenografts; Passage #1, median tumor volume, 5 mg/kg p.o.): 63%
- day of optimal Test/Control (UXF1138L xenografts; Passage #2): (7) day
- opt. Test/Control [%] (UXF1138L xenografts; Passage #2, median tumor volume, 5 mg/kg p.o.): 100%
- opt. Test/Control [%] (UXF1138L xenografts; Passage #3, median tumor volume, 5 mg/kg p.o., 5 mg/kg): 67% and 67.7%
- day of optimal Test/Control (UXF1138L xenografts; Passage #4): (16) day
- opt. Test/Control [%] (UXF1138L xenografts; Passage #4, RHPS4 5 mg/kg p.o. twice weekly, Paclitaxel 20 mg/kg i.v.): 62%
- antitumor response in words (UXF1138L xenografts; Passage #4 UXF1138L xenografts): only marginal growth inhibition
- oral single agent activity (UXF1138L xenografts; any of the 4 passages): did not show oral single agent activity
- TRF [kb] ([1]; Passage #1): 5.1 kb
- TRF [kb] ([1]; Passage #2): ~4.7 kb
- TRF [kb] ([1]; Passage #3): ~3.4 kb
- TRF [kb] ([1]; Passage #4): 4.2 kb
- rate of TRF-length shortening ([1]; passage ~28 days): approximately 1 kb per passage
- nuclear hTERT expression in vitro (hTERT): nuclear hTERT expression was attenuated; also recorded: nuclear hTERT signal is attenuated
